These results are taken from patent US20230416329A1, “A PEPTIDE WITH DISULFIDE BONDS AND INHIBITORY ACTIVITY AGAINST SERINE PROTEASES, DERIVED HYBRID PEPTIDES THEREOF, AND USES THEREOF” (INSTITUTE OF MATERIA MEDICA , CHINESE ACADEMY OF MEDICAL …, priority 2020, published 2023).

The target of one series is DPP-IV (Homo sapiens, UniProt P27487). Description: Tolerance of GLP-1 and its analogues to DPP-IV (RP-HPLC remaining peak area). In kind it is in vitro ADME. The conditions noted are these: peptide 25 μM, DPP-IV 0.5 ng/μL, 37° C.; for Remaining peak area (%)/DPP-IV: 0.0 h; for remaining at 0.5 h, 25 μM / remaining at 2 h, 25 μM / remaining at 4 h, 25 μM / remaining at 8 h, 25 μM / remaining at 12 h, 25 μM: isolated DPP-IV enzyme in buffer, pH 8. The protocol: (§1) Mix by centrifugation at 8000 rpm for 30 seconds.
(2) Arrange a certain volume of 0.005 μg/μL DPP-IV solution in another sterile EP.

In another series the target is NEP24.11 (Homo sapiens, UniProt P08473). Nature of the series: Tolerance of GLP-1 and its analogues to NEP24.11 (RP-HPLC remaining peak area). In kind it is in vitro ADME. To be noted: peptide 30 μM, NEP24.11 1.0 ng/μL; for Remaining peak area (%)/NEP24.11: 0.0 h; for Remaining peak area (%)/NEP24.11 / remaining at 0.5 h, 30 μM / remaining at 2 h, 30 μM / remaining at 4 h, 30 μM / remaining at 8 h, 30 μM: 37° C.; for remaining at 0.5 h, 30 μM / remaining at 2 h, 30 μM / remaining at 4 h, 30 μM / remaining at 8 h, 30 μM: isolated NEP24.11 enzyme in buffer; for remaining at 0.5 h, 30 μM: pH 7.4, 0.5 h; for remaining at 2 h, 30 μM: pH 7.4, 2.0 h; for remaining at 4 h, 30 μM: pH 7.4, 4.0 h; for remaining at 8 h, 30 μM: pH 7.4, 8.0 h, read-out: Remaining peak area (%)/NEP24.11. The method, then:
as §1
Arrange a certain volume of 0.04 μg/μL NEP24.11 enzyme solution in another sterile EP.

The target in another series is T1, trypsin (Bos taurus, UniProt P00760).
T1 sequence (P00760 24-246): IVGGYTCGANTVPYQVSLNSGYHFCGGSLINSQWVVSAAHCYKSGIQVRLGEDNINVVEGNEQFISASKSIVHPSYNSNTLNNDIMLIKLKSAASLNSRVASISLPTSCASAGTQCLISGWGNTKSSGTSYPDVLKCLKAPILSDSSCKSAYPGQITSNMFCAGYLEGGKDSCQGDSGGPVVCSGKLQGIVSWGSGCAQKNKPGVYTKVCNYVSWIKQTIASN
Nature of the series: in vitro. To be noted: isolated enzyme trypsin, pH 7.8. The method in brief:
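Remaining RP-HPLC peak area tracks undigested peptide over time. Samples were quenched with 10% TFA at time points between 1.5 and 60 min during 37 °C digestion. Trypsin was added from a 0.05 μg/μL solution after 5 min of thermal equilibration.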

The next series has as its target chymotrypsin (Bos taurus, UniProt P00766). Nature of the series: in vitro. To be noted: isolated enzyme chymotrypsin, pH 7.8, Remaining peak area (%)/chymotrypsin. In short, it runs like this:
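RP-HPLC peak area tracked intact peptide after 37 °C digestion with chymotrypsin (0.05 μg/μL solution, 5 min preincubation). Samples were withdrawn at 1.5-60.0 min and stopped with 10% TFA.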

The structures appear in SMILES notation.

Chain of NEP24.11 (P08473 whole entry): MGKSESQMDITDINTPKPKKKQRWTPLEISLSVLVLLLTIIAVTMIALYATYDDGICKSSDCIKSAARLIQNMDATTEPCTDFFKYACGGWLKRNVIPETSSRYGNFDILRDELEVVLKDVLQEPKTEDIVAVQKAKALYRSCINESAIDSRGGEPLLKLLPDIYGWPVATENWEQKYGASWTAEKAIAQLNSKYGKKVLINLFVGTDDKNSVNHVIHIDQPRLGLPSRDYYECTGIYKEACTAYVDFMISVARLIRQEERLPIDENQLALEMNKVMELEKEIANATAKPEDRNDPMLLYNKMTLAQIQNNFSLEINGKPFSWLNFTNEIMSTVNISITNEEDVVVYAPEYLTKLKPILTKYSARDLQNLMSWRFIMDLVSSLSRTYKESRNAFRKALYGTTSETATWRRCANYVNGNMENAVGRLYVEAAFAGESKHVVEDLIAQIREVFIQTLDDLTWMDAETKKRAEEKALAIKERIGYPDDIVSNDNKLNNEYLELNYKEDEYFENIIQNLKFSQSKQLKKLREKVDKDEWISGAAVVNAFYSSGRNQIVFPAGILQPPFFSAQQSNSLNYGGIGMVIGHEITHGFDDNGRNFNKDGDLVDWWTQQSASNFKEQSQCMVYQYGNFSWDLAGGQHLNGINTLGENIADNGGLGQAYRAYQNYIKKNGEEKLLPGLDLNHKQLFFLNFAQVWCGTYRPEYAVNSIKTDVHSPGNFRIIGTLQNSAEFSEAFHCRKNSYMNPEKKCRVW
Chain of DPP-IV (P27487 whole entry, species assumed): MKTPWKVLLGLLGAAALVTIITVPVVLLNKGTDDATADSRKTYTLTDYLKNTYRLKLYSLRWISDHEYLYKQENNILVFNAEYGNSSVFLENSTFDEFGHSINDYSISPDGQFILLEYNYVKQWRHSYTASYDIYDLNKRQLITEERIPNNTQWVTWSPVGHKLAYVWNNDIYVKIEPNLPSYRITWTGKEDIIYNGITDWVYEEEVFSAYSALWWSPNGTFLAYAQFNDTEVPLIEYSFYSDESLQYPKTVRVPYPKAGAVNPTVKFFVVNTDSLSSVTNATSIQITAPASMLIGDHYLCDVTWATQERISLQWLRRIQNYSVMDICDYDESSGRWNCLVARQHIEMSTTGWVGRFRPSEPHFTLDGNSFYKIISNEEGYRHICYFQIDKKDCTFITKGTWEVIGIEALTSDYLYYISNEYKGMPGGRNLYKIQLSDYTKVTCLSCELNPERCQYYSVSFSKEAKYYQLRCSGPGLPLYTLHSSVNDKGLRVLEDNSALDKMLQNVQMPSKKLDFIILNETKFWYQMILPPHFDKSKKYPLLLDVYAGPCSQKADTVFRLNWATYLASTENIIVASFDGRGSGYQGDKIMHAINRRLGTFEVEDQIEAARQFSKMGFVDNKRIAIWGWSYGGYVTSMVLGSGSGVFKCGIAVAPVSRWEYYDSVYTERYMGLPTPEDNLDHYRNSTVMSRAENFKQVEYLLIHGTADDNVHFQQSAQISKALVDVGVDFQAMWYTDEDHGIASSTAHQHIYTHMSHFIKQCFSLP

Turning to `CC[C@H](C)[C@H](NC(=O)[C@H](Cc1ccccc1)NC(=O)[C@H](CCC(=O)O)NC(=O)[C@H](CCCCN)NC(=O)[C@H](C)NC(=O)[C@H](C)NC(=O)[C@H](CCC(N)=O)NC(=O)CNC(=O)[C@H](CCC(=O)O)NC(=O)[C@H](CC(C)C)NC(=O)[C@H](Cc1ccc(O)cc1)NC(=O)[C@H](CO)NC(=O)[C@H](CO)NC(=O)[C@@H](NC(=O)[C@H](CC(=O)O)NC(=O)[C@H](CO)NC(=O)[C@@H](NC(=O)[C@H](Cc1ccccc1)NC(=O)[C@@H](NC(=O)CNC(=O)[C@H](CCC(=O)O)NC(=O)[C@H](C)NC(=O)[C@H](Cc1c[nH]cn1)NC(=O)CNC(=O)CNC(=O)[C@H](CCCNC(=N)N)NC(=O)[C@H](CO)NC(=O)[C@H](Cc1ccccc1)NC(=O)[C@H](CCCNC(=N)N)NC(=O)[C@H](CCC(N)=O)NC(=O)CN)[C@@H](C)O)[C@@H](C)O)C(C)C)C(=O)N[C@@H](C)C(=O)N[C@@H](Cc1c[nH]c2ccccc12)C(=O)N[C@@H](CC(C)C)C(=O)N[C@H](C(=O)N[C@@H](CCCCN)C(=O)NCC(=O)N[C@@H](CCCNC(=N)N)C(=O)NCC(=O)NCC(=O)N[C@@H](CCCCN)C(=O)NCC(=O)N[C@@H](CCCNC(=N)N)C(=O)N[C@H]1CSSC[C@@H](C(=O)N[C@@H](Cc2ccccc2)C(=O)N2CCC[C@H]2C(=O)O)NC(=O)[C@H]([C@@H](C)CC)NC(=O)[C@@H]2CCCN2C(=O)[C@@H]2CCCN2C(=O)[C@H]([C@@H](C)CC)NC(=O)[C@H](CO)NC(=O)[C@H](CCCCN)NC(=O)[C@H]([C@@H](C)O)NC1=O)C(C)C` [N-GLP-1-BT1], at DPP-IV, the “Remaining peak area (%)/DPP-IV” value turned out to be 100.0 ± 0.0%; the remaining at 0.5 h, 25 μM worked out at 84 ± 0.1%; the remaining at 2 h, 25 μM worked out at 80.1 ± 0.9%; the remaining at 4 h, 25 μM was determined as 76 ± 1.6%. For the same compound, on DPP-IV, the remaining at 8 h, 25 μM was 74.1 ± 0.5% and the remaining at 12 h, 25 μM was 72.1 ± 2%. Moreover, at NEP24.11, the “Remaining peak area (%)/NEP24.11” value is reported as 100.0 ± 0.0%; the remaining at 0.5 h, 30 μM came out at 82.3 ± 8.3%; the remaining at 2 h, 30 μM was determined as 80.3 ± 2%; the remaining at 4 h, 30 μM is 74.4 ± 9.1%. Also, at NEP24.11, the remaining at 8 h, 30 μM is 68.7 ± 8.4%. Further, at trypsin, the remaining at 0.025 h, 60 μM was found to be 89.2 ± 3.7%; the remaining at 0.05 h, 60 μM came to 83.2 ± 2.3%; the remaining at 0.075 h, 60 μM is 79.1 ± 1%; the remaining at 0.1 h, 60 μM came out at 84.4 ± 3.4%. On trypsin, the remaining at 0.15 h, 60 μM was found to be 83.9 ± 0.5%; the remaining at 0.25 h, 60 μM worked out at 84.5 ± 4.9%; the remaining at 0.5 h, 60 μM came out at 83.7 ± 3%; the remaining at 1 h, 60 μM was found to be 83.5 ± 1.4%. Besides, on chymotrypsin, the remaining at 0.025 h, 60 μM was 79.5 ± 4.9%; the remaining at 0.05 h, 60 μM is 71.8 ± 2.7%; the remaining at 0.075 h, 60 μM was found to be 64.9 ± 1%; the remaining at 0.1 h, 60 μM stood at 59.8 ± 2.9%. Further, the remaining at 0.15 h, 60 μM at chymotrypsin turned out to be 51.9 ± 1%.

For `CC[C@H](C)[C@H](NC(=O)[C@H](Cc1ccccc1)NC(=O)[C@H](CCC(=O)O)NC(=O)[C@H](CCCCN)NC(=O)[C@H](C)NC(=O)[C@H](C)NC(=O)[C@H](CCC(N)=O)NC(=O)CNC(=O)[C@H](CCC(=O)O)NC(=O)[C@H](CC(C)C)NC(=O)[C@H](Cc1ccc(O)cc1)NC(=O)[C@H](CO)NC(=O)[C@H](CO)NC(=O)[C@@H](NC(=O)[C@H](CC(=O)O)NC(=O)[C@H](CO)NC(=O)[C@@H](NC(=O)[C@H](Cc1ccccc1)NC(=O)[C@@H](NC(=O)CNC(=O)[C@H](CCC(=O)O)NC(=O)[C@H](C)NC(=O)[C@H](Cc1c[nH]cn1)NC(=O)CNC(=O)CNC(=O)[C@H](CCCNC(=N)N)NC(=O)[C@H](CO)NC(=O)[C@H](Cc1ccccc1)NC(=O)[C@H](CCCNC(=N)N)NC(=O)[C@H](CCC(N)=O)NC(=O)CN)[C@@H](C)O)[C@@H](C)O)C(C)C)C(=O)N[C@@H](C)C(=O)N[C@@H](Cc1c[nH]c2ccccc12)C(=O)N[C@@H](CC(C)C)C(=O)N[C@H](C(=O)N[C@@H](CCCCN)C(=O)NCC(=O)N[C@@H](CCCNC(=N)N)C(=O)NCC(=O)NCC(=O)N[C@@H](CCCCN)C(=O)NCC(=O)N[C@H]1CSSC[C@@H](C(=O)N[C@@H](Cc2ccccc2)C(=O)O)NC(=O)[C@H]([C@@H](C)CC)NC(=O)[C@@H]2CCCN2C(=O)[C@@H]2CCCN2C(=O)[C@H]([C@@H](C)CC)NC(=O)[C@H](CO)NC(=O)[C@H](CCCCN)NC(=O)[C@H]([C@@H](C)O)NC(=O)[C@H](C)NC(=O)[C@H](CCCNC(=N)N)NC(=O)CNC1=O)C(C)C` [N-GLP-1-BT9], at DPP-IV, the “Remaining peak area (%)/DPP-IV” value is 100.0 ± 0.0%; the remaining at 0.5 h, 25 μM stood at 90 ± 3%; the remaining at 2 h, 25 μM came to 89.5 ± 1.8%; the remaining at 4 h, 25 μM stood at 89.6 ± 3.6%. On DPP-IV, the remaining at 8 h, 25 μM came to 89.2 ± 1% and the remaining at 12 h, 25 μM amounted to 89.3 ± 7.5%. Besides, at NEP24.11, the “Remaining peak area (%)/NEP24.11” value is on record as 100.0 ± 0.0%; the remaining at 0.5 h, 30 μM is 85.9 ± 2.8%; the remaining at 2 h, 30 μM came out at 74.9 ± 1.4%; the remaining at 4 h, 30 μM worked out at 66.8 ± 2.1%. The remaining at 8 h, 30 μM at NEP24.11 came out at 52.7 ± 3.9%. For the same compound, at trypsin, the remaining at 0.025 h, 60 μM was 105 ± 3%; the remaining at 0.05 h, 60 μM amounted to 104 ± 2.8%; the remaining at 0.075 h, 60 μM is 102 ± 3%; the remaining at 0.1 h, 60 μM stood at 104 ± 6.4%. Also, at trypsin, the remaining at 0.15 h, 60 μM worked out at 103 ± 3.5%; the remaining at 0.25 h, 60 μM came to 102 ± 4.9%; the remaining at 0.5 h, 60 μM stood at 96.4 ± 9.9%; the remaining at 1 h, 60 μM was determined as 86.3 ± 6.4%. Also, at chymotrypsin, the remaining at 0.025 h, 60 μM stood at 75.5 ± 5.3%; the remaining at 0.05 h, 60 μM amounted to 56.3 ± 2.1%; the remaining at 0.075 h, 60 μM came out at 47 ± 1.6%; the remaining at 0.1 h, 60 μM amounted to 38.1 ± 2.2%. In addition, the remaining at 0.15 h, 60 μM on chymotrypsin came out at 24.2 ± 3%.

For `CC[C@H](C)[C@H](NC(=O)[C@H](Cc1ccccc1)NC(=O)[C@H](CCC(=O)O)NC(=O)[C@H](CCCCN)NC(=O)[C@H](C)NC(=O)[C@H](C)NC(=O)[C@H](CCC(N)=O)NC(=O)CNC(=O)[C@H](CCC(=O)O)NC(=O)[C@H](CC(C)C)NC(=O)[C@H](Cc1ccc(O)cc1)NC(=O)[C@H](CO)NC(=O)[C@H](CO)NC(=O)[C@@H](NC(=O)[C@H](CC(=O)O)NC(=O)[C@H](CO)NC(=O)[C@@H](NC(=O)[C@H](Cc1ccccc1)NC(=O)[C@@H](NC(=O)CNC(=O)[C@H](CCC(=O)O)NC(=O)[C@H](C)NC(=O)[C@H](Cc1c[nH]cn1)NC(=O)CNC(=O)CNC(=O)[C@H](CCCNC(=N)N)NC(=O)[C@H](CO)NC(=O)[C@H](Cc1ccccc1)NC(=O)[C@H](CCCNC(=N)N)NC(=O)[C@H](CCC(N)=O)NC(=O)CNC(=O)CN)[C@@H](C)O)[C@@H](C)O)C(C)C)C(=O)N[C@@H](C)C(=O)N[C@@H](Cc1c[nH]c2ccccc12)C(=O)N[C@@H](CC(C)C)C(=O)N[C@H](C(=O)N[C@@H](CCCCN)C(=O)NCC(=O)N[C@@H](CCCNC(=N)N)C(=O)NCC(=O)NCC(=O)N[C@@H](CCCCN)C(=O)O)C(C)C` [N-GLP-1], on DPP-IV, the “Remaining peak area (%)/DPP-IV” value is reported as 100.0 ± 0.0%; the remaining at 0.5 h, 25 μM came out at 73.9 ± 5%; the remaining at 2 h, 25 μM was 76.9 ± 3%; the remaining at 4 h, 25 μM was 79.6 ± 2.3%. For the same compound, on DPP-IV, the remaining at 8 h, 25 μM was 74.9 ± 5.3% and the remaining at 12 h, 25 μM stood at 74.6 ± 10.1%. On NEP24.11, the “Remaining peak area (%)/NEP24.11” value came to 100.0 ± 0.0%; the remaining at 0.5 h, 30 μM was 83.9 ± 2.8%; the remaining at 2 h, 30 μM amounted to 54.9 ± 13.6%; the remaining at 4 h, 30 μM turned out to be 51 ± 6.5%. The remaining at 8 h, 30 μM on NEP24.11 stood at 56.4 ± 15.8%. Besides, the “remaining amount after NEP24.11 hydrolysis” value on NEP24.11 (8 hours) is “about 56.4%”. At trypsin, the remaining at 0.025 h, 60 μM is 16.9 ± 1.6%; the remaining at 0.05 h, 60 μM was found to be 3.7 ± 5.3%; the remaining at 0.075 h, 60 μM came to 1.2 ± 1.7%; the remaining at 0.1 h, 60 μM turned out to be 0%. Also, the remaining at 0.15 h, 60 μM on trypsin is 0%. Moreover, at chymotrypsin, the remaining at 0.025 h, 60 μM is 65.8 ± 2.6%; the remaining at 0.05 h, 60 μM is 69.3 ± 4%; the remaining at 0.075 h, 60 μM turned out to be 66.2 ± 1.9%; the remaining at 0.1 h, 60 μM was determined as 60.9 ± 0.8%. The remaining at 0.15 h, 60 μM on chymotrypsin was determined as 45.8 ± 5.4%.
